Paper PMC8953834, “A Helquat-like Compound as a Potent Inhibitor of Flaviviral and Coronaviral Polymerases” (Molecules, 2022)

Columns and labels:
JEV RdRp = molecular target: T1, JEV RdRp (Japanese encephalitis virus, UniProt P32886); experiment: biochemical
T1 construct: NS5 proteins and SARS-CoV-2 nsp12, nsp8 and nsp7 were expressed with appropriate purification and folding tags; His6-TEV site (N); made in house; host or cells: E. coli BL-21 CodonPlus (DE3)-RIL

SARS-CoV-2 [1] = experiment: SARS-CoV-2 yield reduction assay (plaque assay) in VERO-E6 cells; type: cell-based; settings: MOI 0.04, 3 days
SARS-CoV-2 [2] = type: cell-based
NTAV RdRp = NTAV RdRp (Ntaya virus, UniProt K0BRZ6); experiment: Radioactive polymerase assay (IC50), NTAV RdRp; type: biochemical; settings: radioactively labeled elongation products, [α-32P]-ATP, hairpin RNA
VERO-E6 cells = experiment: Cytotoxicity (XTT) in VERO-E6 cells; settings: 3 days
in vitro = settings: pig
TBEV (strain Hypr) = experiment: microbe, parasite or virus in culture; type: cell-based, tick-borne encephalitis virus; settings: for EC50: Tick-borne encephalitis virus, 48 h, read-out: EC50, anti-TBEV activity
Caco-2 cells = experiment: Cytotoxicity (XTT) in Caco-2 cells
[3] = Cytotoxicity (XTT) in Caco-2 cells; settings: human
SARS-CoV-2 RdRp = molecular target: T2, SARS-CoV-2 RdRp (Severe acute respiratory syndrome coronavirus 2, UniProt P0DTD1); experiment: biochemical
T2 construct: except for the full length nsp12 protein, which was expressed in insect cells; His6 (C); made in house; host or cells: nsp12 in insect cells; nsp7 and nsp8 in E. coli BL-21 CodonPlus (DE3)-RIL

SARS-CoV-2 [4] = experiment: Anti-SARS-CoV-2 cytopathic effect (CPE)-based assay in Calu-3 cells; type: cell-based; settings: Severe acute respiratory syndrome coronavirus 2, 72 h, MOI 0.04, 3 days, XTT, read-out: EC50, inhibition of virus-induced CPE
SARS-CoV-2 [5] = experiment: Anti-SARS-CoV-2 immunofluorescence assay (IFA) in VERO-E6 cells; type: cell-based; settings: Severe acute respiratory syndrome coronavirus 2, Vero C1008, 72 h, MOI 0.02, 3 days, read-out: EC50, inhibition of SARS-CoV-2 (nucleoprotein IFA)
TBEV RdRp = TBEV RdRp (Tick-borne encephalitis virus, UniProt Q01299); experiment: biochemical
flaviviral RdRp = type: biochemical, Flaviviridae (JEV, NTAV, TBEV, YFV, ZIKV)
[6] = molecular target: T3, SARS-CoV-2 RdRp (nsp7, nsp8 and nsp12) (Severe acute respiratory syndrome coronavirus 2, UniProt P0DTD1); type: biochemical
T3 construct: except for the full length nsp12 protein, which was expressed in insect cells; His6 (C); made in house; host or cells: nsp12 in insect cells; nsp7 and nsp8 in E. coli BL-21 CodonPlus (DE3)-RIL

SARS-CoV-2 [7] = experiment: Anti-SARS-CoV-2 immunofluorescence assay (IFA) in Caco-2 cells; type: cell-based; settings: Severe acute respiratory syndrome coronavirus 2, MOI 0.002, read-out: EC50, inhibition of SARS-CoV-2 replication (nucleoprotein IFA)
[8] = Cytotoxicity (XTT) in Calu-3 cells; settings: human
Calu-3 cells = experiment: Cytotoxicity (XTT) in Calu-3 cells
ZIKV RdRp = ZIKV RdRp (Zika virus, UniProt A0A1L5YKZ2); experiment: Radioactive polymerase assay (IC50), ZIKV RdRp; type: biochemical; settings: radioactively labeled elongation products, [α-32P]-ATP, hairpin RNA
YFV RdRp = YFV RdRp (Yellow fever virus, UniProt P03314); experiment: biochemical
WNV RdRp = molecular target: T4, WNV RdRp (West Nile virus, UniProt Q9Q6P4); experiment: biochemical
T4 construct: NS5 proteins and SARS-CoV-2 nsp12, nsp8 and nsp7 were expressed with appropriate purification and folding tags; His6-TEV site (N); made in house; host or cells: E. coli BL-21 CodonPlus (DE3)-RIL

Sequence of NTAV RdRp (K0BRZ6 2523-3427): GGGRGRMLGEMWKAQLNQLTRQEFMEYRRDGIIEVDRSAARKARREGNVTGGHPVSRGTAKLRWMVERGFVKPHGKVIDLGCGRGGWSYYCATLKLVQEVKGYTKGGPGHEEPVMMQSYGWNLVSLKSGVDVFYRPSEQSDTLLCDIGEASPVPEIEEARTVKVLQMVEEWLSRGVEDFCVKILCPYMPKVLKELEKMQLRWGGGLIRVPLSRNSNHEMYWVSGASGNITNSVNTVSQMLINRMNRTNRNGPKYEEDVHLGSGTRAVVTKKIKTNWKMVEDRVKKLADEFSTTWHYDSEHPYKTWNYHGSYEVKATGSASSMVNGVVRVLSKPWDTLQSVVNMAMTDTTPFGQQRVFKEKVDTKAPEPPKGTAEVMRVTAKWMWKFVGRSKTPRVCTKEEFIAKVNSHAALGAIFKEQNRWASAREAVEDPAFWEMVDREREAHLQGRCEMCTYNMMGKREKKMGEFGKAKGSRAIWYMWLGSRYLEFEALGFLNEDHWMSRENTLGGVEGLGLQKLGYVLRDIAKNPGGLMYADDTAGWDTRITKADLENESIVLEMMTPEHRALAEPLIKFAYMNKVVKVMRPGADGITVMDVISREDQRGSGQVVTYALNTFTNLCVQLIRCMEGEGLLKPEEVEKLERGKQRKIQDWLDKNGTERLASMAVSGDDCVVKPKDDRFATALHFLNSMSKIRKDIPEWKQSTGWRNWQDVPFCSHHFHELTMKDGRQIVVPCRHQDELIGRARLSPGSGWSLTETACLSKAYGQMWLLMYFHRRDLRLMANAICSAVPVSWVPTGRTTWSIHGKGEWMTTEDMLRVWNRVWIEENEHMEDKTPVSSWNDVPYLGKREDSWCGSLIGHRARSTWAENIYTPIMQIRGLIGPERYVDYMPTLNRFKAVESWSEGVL
Sequence of TBEV RdRp (Q01299 2512-3414 limits assumed): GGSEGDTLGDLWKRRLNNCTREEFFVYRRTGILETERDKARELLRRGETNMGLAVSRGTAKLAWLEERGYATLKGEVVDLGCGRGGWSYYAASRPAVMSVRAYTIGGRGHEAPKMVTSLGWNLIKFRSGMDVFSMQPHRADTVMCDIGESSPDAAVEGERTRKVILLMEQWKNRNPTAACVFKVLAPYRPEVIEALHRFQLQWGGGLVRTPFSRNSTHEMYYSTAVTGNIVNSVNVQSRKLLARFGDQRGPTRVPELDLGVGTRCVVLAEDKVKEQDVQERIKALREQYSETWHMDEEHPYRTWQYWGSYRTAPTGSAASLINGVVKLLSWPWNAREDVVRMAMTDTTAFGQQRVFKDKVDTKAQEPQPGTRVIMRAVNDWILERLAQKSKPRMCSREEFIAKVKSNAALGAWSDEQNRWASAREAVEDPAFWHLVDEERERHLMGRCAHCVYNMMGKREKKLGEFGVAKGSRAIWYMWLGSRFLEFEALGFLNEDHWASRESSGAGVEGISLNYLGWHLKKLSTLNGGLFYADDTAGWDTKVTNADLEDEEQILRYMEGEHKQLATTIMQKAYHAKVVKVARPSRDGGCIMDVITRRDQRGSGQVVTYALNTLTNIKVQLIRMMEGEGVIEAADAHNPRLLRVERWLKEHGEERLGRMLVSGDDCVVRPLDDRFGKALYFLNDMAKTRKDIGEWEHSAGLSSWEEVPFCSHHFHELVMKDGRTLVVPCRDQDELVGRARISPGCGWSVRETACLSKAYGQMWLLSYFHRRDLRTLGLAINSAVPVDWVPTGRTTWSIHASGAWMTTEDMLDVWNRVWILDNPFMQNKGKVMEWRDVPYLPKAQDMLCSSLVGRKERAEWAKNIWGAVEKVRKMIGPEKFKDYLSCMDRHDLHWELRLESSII
Sequence of ZIKV RdRp (A0A1L5YKZ2 2521-3423): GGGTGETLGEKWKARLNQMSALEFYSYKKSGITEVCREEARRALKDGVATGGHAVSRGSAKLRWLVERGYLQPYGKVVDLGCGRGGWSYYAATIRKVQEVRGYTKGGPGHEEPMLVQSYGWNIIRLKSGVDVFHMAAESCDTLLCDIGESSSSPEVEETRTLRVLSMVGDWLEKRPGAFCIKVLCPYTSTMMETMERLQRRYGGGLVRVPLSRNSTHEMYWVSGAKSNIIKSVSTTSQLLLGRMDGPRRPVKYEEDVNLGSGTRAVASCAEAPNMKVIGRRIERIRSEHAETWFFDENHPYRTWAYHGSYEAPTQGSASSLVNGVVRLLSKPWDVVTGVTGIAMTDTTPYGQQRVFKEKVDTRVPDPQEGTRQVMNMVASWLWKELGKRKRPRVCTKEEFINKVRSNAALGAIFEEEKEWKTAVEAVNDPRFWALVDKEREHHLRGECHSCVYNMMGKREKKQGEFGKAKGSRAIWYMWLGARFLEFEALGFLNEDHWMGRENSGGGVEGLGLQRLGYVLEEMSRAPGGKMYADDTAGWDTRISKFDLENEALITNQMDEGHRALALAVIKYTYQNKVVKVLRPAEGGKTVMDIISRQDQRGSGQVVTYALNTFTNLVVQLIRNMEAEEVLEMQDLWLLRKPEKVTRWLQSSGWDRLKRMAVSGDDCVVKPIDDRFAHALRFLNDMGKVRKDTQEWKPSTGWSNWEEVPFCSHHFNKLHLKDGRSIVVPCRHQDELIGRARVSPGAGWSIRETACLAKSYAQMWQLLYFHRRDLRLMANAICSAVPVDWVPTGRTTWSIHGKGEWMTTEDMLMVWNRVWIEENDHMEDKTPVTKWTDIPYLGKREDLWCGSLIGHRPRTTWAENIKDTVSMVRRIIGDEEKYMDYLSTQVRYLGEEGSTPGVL
T1 sequence (P32886 2528-3432 limits assumed): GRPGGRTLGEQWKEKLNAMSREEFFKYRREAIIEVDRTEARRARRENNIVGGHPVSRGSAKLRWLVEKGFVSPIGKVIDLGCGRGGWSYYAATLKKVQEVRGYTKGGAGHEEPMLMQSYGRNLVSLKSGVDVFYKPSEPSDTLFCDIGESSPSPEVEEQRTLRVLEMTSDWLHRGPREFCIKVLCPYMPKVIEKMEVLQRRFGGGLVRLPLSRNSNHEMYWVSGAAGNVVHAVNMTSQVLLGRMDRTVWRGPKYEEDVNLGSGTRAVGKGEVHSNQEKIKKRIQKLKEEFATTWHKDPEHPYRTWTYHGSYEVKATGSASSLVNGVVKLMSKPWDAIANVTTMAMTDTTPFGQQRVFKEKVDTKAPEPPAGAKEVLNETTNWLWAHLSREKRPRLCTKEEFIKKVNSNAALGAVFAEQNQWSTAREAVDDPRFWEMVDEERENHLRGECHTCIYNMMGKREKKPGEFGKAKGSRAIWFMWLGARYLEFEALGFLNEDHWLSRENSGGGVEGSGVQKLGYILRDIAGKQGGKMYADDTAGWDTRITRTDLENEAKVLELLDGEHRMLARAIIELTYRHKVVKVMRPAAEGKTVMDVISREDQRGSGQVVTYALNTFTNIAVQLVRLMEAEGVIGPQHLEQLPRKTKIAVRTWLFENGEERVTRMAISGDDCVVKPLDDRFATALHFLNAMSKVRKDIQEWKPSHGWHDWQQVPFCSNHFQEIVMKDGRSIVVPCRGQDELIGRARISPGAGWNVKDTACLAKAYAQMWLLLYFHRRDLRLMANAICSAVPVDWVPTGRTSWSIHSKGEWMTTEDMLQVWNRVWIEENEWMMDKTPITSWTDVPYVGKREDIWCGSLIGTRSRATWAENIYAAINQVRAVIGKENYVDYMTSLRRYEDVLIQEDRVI
Sequence of YFV RdRp (P03314 2507-3411 limits assumed): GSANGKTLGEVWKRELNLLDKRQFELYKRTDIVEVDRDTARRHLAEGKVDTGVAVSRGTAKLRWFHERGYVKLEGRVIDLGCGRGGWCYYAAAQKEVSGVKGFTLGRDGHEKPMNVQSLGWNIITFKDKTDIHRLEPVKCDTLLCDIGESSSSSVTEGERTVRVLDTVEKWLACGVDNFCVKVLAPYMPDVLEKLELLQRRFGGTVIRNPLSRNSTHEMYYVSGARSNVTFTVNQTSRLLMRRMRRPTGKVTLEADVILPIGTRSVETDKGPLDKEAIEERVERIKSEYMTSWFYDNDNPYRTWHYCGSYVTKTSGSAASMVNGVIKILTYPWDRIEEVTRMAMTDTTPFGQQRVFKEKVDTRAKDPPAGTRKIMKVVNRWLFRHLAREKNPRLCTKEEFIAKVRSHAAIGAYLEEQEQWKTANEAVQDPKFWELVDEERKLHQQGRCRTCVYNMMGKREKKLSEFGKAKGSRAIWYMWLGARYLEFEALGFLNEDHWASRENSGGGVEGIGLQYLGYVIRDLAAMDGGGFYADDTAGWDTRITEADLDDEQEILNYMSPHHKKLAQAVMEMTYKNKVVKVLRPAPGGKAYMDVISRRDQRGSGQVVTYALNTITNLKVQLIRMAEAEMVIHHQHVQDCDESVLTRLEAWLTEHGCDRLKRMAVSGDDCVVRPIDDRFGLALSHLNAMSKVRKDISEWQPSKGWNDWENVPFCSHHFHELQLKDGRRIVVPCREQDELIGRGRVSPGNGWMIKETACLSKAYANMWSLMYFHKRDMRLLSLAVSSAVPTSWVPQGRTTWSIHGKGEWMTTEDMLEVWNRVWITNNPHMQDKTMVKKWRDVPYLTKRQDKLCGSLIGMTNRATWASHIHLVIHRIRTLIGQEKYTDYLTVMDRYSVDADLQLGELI

Compound: Cc1c(C)c2c(c3c1CC[n+]1ccc(/C=C4\Sc5ccccc5N4C)cc1-3)-c1cccc(/C=C3\Sc4ccccc4N3C)[n+]1CC2 [PR673]
- IC50 (JEV RdRp): 3.9 ± 0.4 µM
- activity compared with remdesivir in yield reduction assay (SARS-CoV-2 [1]): much less active than the COVID-19 drug remdesivir
- reduction in viral plaques (SARS-CoV-2 [1]; at 50 µM): 58%
- inhibition of virus replication (virus-induced CPE) in screen (SARS-CoV-2 [2]): inhibited the replication of the virus
- IC50 (NTAV RdRp): 3.1 ± 0.2 µM
- cell toxicity (VERO-E6 cells): no cell toxicity
- CC50 (in vitro): > 50 µM
- anti-TBEV activity in comparison to 7-deaza-2′-CMA (TBEV (strain Hypr)): almost four-fold higher
- compound concentration of complete inhibition of TBEV replication (TBEV (strain Hypr)): 0.4 µM
- EC50 (TBEV (strain Hypr)): 0.11 µM
- cytotoxicity at the highest used concentration (Caco-2 cells): mild cytotoxicity
- CC50 at 3 days [3]: > 50 µM
- IC50 (SARS-CoV-2 RdRp): 4 ± 0.2 µM
- EC50 (SARS-CoV-2 [4]): 18 µM
- EC50 (SARS-CoV-2 [5]): 29 µM
- IC50 (TBEV RdRp): 3.6 ± 0.2 µM
- inhibition of RNA synthesis by flaviviral RdRps (flaviviral RdRp): strong inhibition of RNA synthesis in low micromolar concentrations
- PR673 concentration at which synthesis of RNA was totally blocked [6]: above 12.5 µM
- EC50 (SARS-CoV-2 [7]): 17 µM
- CC50 at 3 days [8]: > 50 µM
- cytotoxicity at the highest used concentration (Calu-3 cells): mild cytotoxicity
- IC50 (ZIKV RdRp): 4.9 ± 0.5 µM
- IC50 (YFV RdRp): 3 ± 0.1 µM
- IC50 (WNV RdRp): 3.4 ± 0.2 µM

Compound: C[C@@]1(O)[C@H](O)[C@@H](CO)O[C@H]1n1ccc2c(N)ncnc21 [7-deaza-2′-CMA, 7-deaza-2′-C-methyladenosine, reference compound]
- CC50 (in vitro): > 50 µM
- EC50 (TBEV (strain Hypr)): 0.43 ± 0.06 µM
